In patent publication US9556179B2 (BRISTOL-MYERS SQUIBB COMPANY, priority 2012, dated 2017) one finds IC50 data, which are given here for 28 molecules.

pIC50: −log10 of the molar value.

The target in one assay is CK1δ (Homo sapiens (Human), UniProt P48730). Kind of assay: CK1δ kinase assay (Caliper LABCHIP electrophoretic separation of fluoresceinated peptide substrate and product). The format is biochemical. Particulars: 200 pM enzyme, 50 μM ATP, 22 hours at room temperature. Put shortly:
(§1)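 Incubated for twenty-two hours at ambient temperature, then quenched with EDTA and analyzed by electrophoretic separation of unphosphorylated and phosphorylated peptide.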

A further assay deals with CK1ε (Homo sapiens (Human), UniProt P49674). Kind of assay: CK1ε kinase assay (Caliper LABCHIP electrophoretic separation of fluoresceinated peptide substrate and product). The class given is biochemical. Particulars: 200 pM enzyme, 50 μM ATP, 22 hours at room temperature. The method, boiled down:
as §1

CK1ε, sequence (P49674 whole entry): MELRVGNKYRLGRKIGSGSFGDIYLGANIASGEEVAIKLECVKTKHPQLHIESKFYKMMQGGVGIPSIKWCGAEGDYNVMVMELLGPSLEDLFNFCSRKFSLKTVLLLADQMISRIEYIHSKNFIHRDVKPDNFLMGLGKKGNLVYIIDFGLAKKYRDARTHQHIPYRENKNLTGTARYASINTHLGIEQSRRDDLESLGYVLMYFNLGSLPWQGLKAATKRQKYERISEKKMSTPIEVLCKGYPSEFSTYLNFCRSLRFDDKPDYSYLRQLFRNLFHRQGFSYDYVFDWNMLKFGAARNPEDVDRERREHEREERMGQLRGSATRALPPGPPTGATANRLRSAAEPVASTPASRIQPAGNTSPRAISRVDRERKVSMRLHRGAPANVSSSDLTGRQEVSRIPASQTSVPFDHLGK
CK1δ, sequence (P48730 whole entry): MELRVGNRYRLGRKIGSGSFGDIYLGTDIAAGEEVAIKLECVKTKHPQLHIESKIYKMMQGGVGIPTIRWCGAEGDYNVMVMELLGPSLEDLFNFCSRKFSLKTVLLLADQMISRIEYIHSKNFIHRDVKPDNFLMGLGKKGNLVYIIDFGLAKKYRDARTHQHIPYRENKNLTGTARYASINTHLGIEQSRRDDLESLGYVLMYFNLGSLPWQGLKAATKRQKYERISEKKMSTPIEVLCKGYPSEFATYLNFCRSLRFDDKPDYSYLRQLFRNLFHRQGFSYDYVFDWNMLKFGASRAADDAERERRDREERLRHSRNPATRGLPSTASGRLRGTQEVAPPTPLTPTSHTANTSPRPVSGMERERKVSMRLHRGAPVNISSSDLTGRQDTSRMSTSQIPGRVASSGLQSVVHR

Take `O=C(Nc1cn2nc(-c3c(-c4ccc(F)cc4)ncn3Cc3cc(C4CC4)[nH]n3)ccc2n1)c1ccnc(F)c1` [Compound 270, N-(6-(1-((5-cyclopropyl-1H-pyrazol-3-yl)methyl)-4-(4-fluorophenyl)-1H-imidazol-5-yl)imidazo[1,2-b]pyridazin-2-yl)-2-fluoroiso-nicotinamide]: the negative logarithm of the IC50 (pIC50) at CK1δ is 8.02; against CK1ε, 7.14.
Turning to `Cc1nccn1CCCn1cnc(-c2ccc(F)cc2)c1-c1ccc2nc(NC(=O)c3ccnc(F)c3)cn2n1` [Compound 271, 2-fluoro-N-(6-(4-(4-fluorophenyl)-1-(3-(2-methyl-1H-imidazol-1-yl)propyl)-1H-imidazol-5-yl)imidazo[1,2-b]pyridazin-2-yl) isonicotinamide], the values for the pIC50 on CK1δ and at CK1ε were 9.05 and 8.22, respectively.
Taken in the same sequence, the figures for `O=C(Nc1cn2nc(-c3c(-c4ccc(F)cc4)ncn3CCN3CCCC3=O)ccc2n1)c1ccnc(F)c1` [Compound 272, 2-fluoro-N-(6-(4-(4-fluorophenyl)-1-(2-(2-oxo-1-pyrrolidinyl)ethyl)-1H-imidazol-5-yl)imidazo[1,2-b]pyridazin-2-yl)isonicotinamide] were 8.78 and 7.78.
For `CCCn1cnc(-c2ccc(F)cc2)c1-c1ccc2nc(NC(=O)C(C)(C)C)cn2n1` [Compound 273, N-(6-(4-(4-Fluorophenyl)-1-propyl-1H-imidazol-5-yl)imidazo[1,2-b]pyridazin-2-yl)pivalamide], in that order: 9.59 and 9.00.
On to `CC(C)(C)C(=O)Nc1cn2nc(-c3c(-c4ccc(F)cc4)ncn3CCO)ccc2n1` [Compound 274, N-(6-(4-(4-fluorophenyl)-1-(2-hydroxyethyl)-1H-imidazol-5-yl)imidazo[1,2-b]pyridazin-2-yl)pivalamide], for which the pIC50 on CK1δ is 9.20; at CK1ε it was 8.05.
Consider `CC(C)(C)C(=O)Nc1cn2nc(-c3c(-c4ccc(F)cc4)ncn3Cc3ccccc3)ccc2n1` [Compound 275, N-(6-(1-benzyl-4-(4-fluorophenyl)-1H-imidazol-5-yl)imidazo[1,2-b]pyridazin-2-yl)pivalamide], for which the figures for the negative logarithm of the IC50 (pIC50) on CK1δ and against CK1ε were 9.26 and 8.37, respectively.
Take `CC(C)(C)C(=O)Nc1cn2nc(-c3[nH]cnc3-c3ccc(F)cc3)ccc2n1` [Compound 276, N-(6-(4-(4-fluorophenyl)-1H-imidazol-5-yl)imidazo[1,2-b]pyridazin-2-yl)pivalamide]: the pIC50 is 8.41 against CK1δ and 7.44 at CK1ε.
`CC(C)(C)C(=O)Nc1cn2nc(-c3c(-c4ccc(F)cc4)ncn3CC3CNC(=O)C3)ccc2n1` (centres unmarked) [Compound 277, N-(6-(4-(4-fluorophenyl)-1-((5-oxo-pyrrolidin-3-yl)methyl)-1H-imidazol-5-yl)imidazo[1,2-b]pyridazin-2-yl)pivalamide]: the pIC50 against CK1δ is 9.62; against CK1ε, 8.42.
In the case of `Cc1cc(Cn2cnc(-c3ccc(F)cc3)c2-c2ccc3nc(NC(=O)C(C)(C)C)cn3n2)no1` [Compound 278, N-(6-(4-(4-fluorophenyl)-1-((5-methyl-isoxazol-3-yl)ylmethyl)-1H-imidazol-5-yl)imidazo[1,2-b]pyridazin-2-yl)pivalamide], the pIC50 is 9.35 at CK1δ and 8.27 against CK1ε.
As for `CC(C)(C)C(=O)Nc1cn2nc(-c3c(-c4ccc(F)cc4)ncn3Cc3ccoc3)ccc2n1` [Compound 279, N-(6-(4-(4-fluorophenyl)-1-(furan-3-ylmethyl)-1H-imidazol-5-yl)imidazo[1,2-b]pyridazin-2-yl)pivalamide], the values for the negative-log IC50 (pIC50) on CK1δ and against CK1ε were 9.77 and 9.05, respectively.
Taken in the same sequence, the figures for `COCCn1cnc(-c2ccc(F)cc2)c1-c1ccc2nc(NC(=O)C(C)(C)C)cn2n1` [Compound 280, N-(6-(4-(4-fluorophenyl)-1-(2-methoxy-ethyl)-1H-imidazol-5-yl)imidazo[1,2-b]pyridazin-2-yl)pivalamide] were 9.28 and 8.60.
With `CC(C)(C)C(=O)Nc1cn2nc(-c3c(-c4ccc(F)cc4)ncn3Cc3cccnc3)ccc2n1` [Compound 281, N-(6-(4-(4-fluorophenyl)-1-(pyridin-3-ylmethyl)-1H-imidazol-5-yl)imidazo[1,2-b]pyridazin-2-yl)pivalamide], the negative-log IC50 (pIC50) was 8.74 on CK1δ and 8.11 on CK1ε.
`CC(C)(C)C(=O)Nc1cn2nc(-c3c(-c4ccc(F)cc4)ncn3CCc3cccnc3)ccc2n1` [Compound 282, N-(6-(4-(4-fluorophenyl)-1-(2-(pyridin-3-yl)ethyl)-1H-imidazol-5-yl)imidazo[1,2-b]pyridazin-2-yl)pivalamide]: the pIC50 against CK1δ was 9.12; on CK1ε, 7.88.
Turning to `Cn1cnc(-c2ccc(F)cc2)c1-c1ccc2nc(NC(=O)C(C)(C)C)cn2n1` [Compound 283, N-(6-(4-(4-fluorophenyl)-1-methyl-1H-imidazol-5-yl)imidazo[1,2-b]pyridazin-2-yl)pivalamide], the negative-log IC50 (pIC50) at CK1δ was 9.26; against CK1ε, 8.12.
For `Cc1nc(-c2ccc(F)cc2)c(-c2ccc3nc(NC(=O)c4ccnc(F)c4)cn3n2)n1CC(F)F` [Compound 284, N-(6-(1-(2,2-Difluoroethyl)-4-(4-fluorophenyl)-2-methyl-1H-imidazol-5-yl)imidazo[1,2b]-pyridazin-2-yl)-2-fluoroisonicotinamide], in that order: 9.42 and 8.69.
For `O=C(Nc1cn2nc(-c3c(-c4ccc(F)cc4)nc(C4CC4)n3CC(F)F)ccc2n1)c1ccnc(F)c1` [Compound 285], in that order: 9.61 and 8.91.
As for `CCc1nc(-c2ccc(F)cc2)c(-c2ccc3nc(NC(=O)c4ccnc(F)c4)cn3n2)n1CC(F)F` [Compound 286, N-(6-(1-(2,2-difluoroethyl)-2-ethyl-4-(4-fluorophenyl)-1H-imidazol-5-yl)imidazo[1,2-b]pyridazin-2-yl)-2-fluoroisonicotinamide], the values for the negative-log IC50 (pIC50) against CK1δ and against CK1ε were 9.14 and 8.17, respectively.
For `CC(C)c1nc(-c2ccc(F)cc2)c(-c2ccc3nc(NC(=O)c4ccnc(F)c4)cn3n2)n1CC(F)F` [Compound 287, N-(6-(1-(2,2-difluoroethyl)-4-(4-fluorophenyl)-2-isopropyl-1H-imidazol-5-yl)imidazo[1,2-b]pyridazin-2-yl)-2-fluoroiso-nicotinamide], in that order: 9.11 and 8.04.
`Cc1nc(-c2ccc(F)cc2)c(-c2ccc3nc(NC(=O)c4ccnc(F)c4)cn3n2)n1CCF` [Compound 288, 2-Fluoro-N-(6-(1-(2-fluoroethyl)-4-(4-fluorophenyl)-2-methyl-1H-imidazol-5-yl)imidazo[1,2-b]pyridazin-2-yl)isonicotinamide]: the pIC50 against CK1δ was 9.96; against CK1ε, 9.65.
With `Cc1nc(-c2ccc(F)cc2)c(-c2ccc3nc(NC(=O)c4ccnc(F)c4)cn3n2)n1CC(F)(F)F` [Compound 289, 2-fluoro-N-(6-(4-(4-fluorophenyl)-2-methyl-1-(2,2,2-trifluoroethyl)-1H-imidazol-5-yl)imidazo[1,2-b]pyridazin-2-yl)isonicotinamide], the results for the pIC50 against CK1δ and at CK1ε were 9.21 and 8.90, respectively.
For the molecule `Cc1nc(-c2ccc(F)c(F)c2)c(-c2ccc3nc(NC(=O)c4ccnc(F)c4)cn3n2)n1CCF` [Compound 290, N-(6-(4-(3,4-difluorophenyl)-1-(2-fluoroethyl)-2-methyl-1H-imidazol-5-yl)imidazo[1,2-b]pyridazin-2-yl)-2-fluoroisonicotinamide], the pIC50 is 9.39 against CK1δ and 8.72 against CK1ε.
Turning to `Cc1nc(-c2ccc(F)c(F)c2)c(-c2ccc3nc(NC(=O)c4ccnc(F)c4)cn3n2)n1CC(F)F` [Compound 291, N-(6-(1-(2,2-difluoroethyl)-4-(3,4-difluorophenyl)-2-methyl-1H-imidazol-5-yl)imidazo[1,2-b]pyridazin-2-yl)-2-fluoroiso-nicotinamide], the results for the pIC50 on CK1δ and against CK1ε were 9.41 and 8.58, respectively.
On to `CCn1c(C)nc(-c2ccc(Cl)cc2)c1-c1ccc2nc(NC(=O)c3ccnc(F)c3)cn2n1` [Compound 292, N-(6-(4-(4-chlorophenyl)-1-ethyl-2-methyl-1H-imidazol-5-yl)imidazo[1,2-b]pyridazin-2-yl)-2-fluoroisonicotinamide], for which the negative-log IC50 (pIC50) at CK1δ is 9.68; at CK1ε, 8.74.
Turning to `Cc1nc(-c2ccc(Cl)cc2)c(-c2ccc3nc(NC(=O)c4ccnc(F)c4)cn3n2)n1CCF` [Compound 293, N-(6-(4-(4-chlorophenyl)-1-(2-fluoroethyl)-2-methyl-1H-imidazol-5-yl)imidazo[1,2-b]pyridazin-2-yl)-2-fluoroisonicotinamide], the negative-log IC50 (pIC50) was 9.96 on CK1δ and 8.89 against CK1ε.
Regarding `Cc1nc(-c2ccc(Cl)cc2)c(-c2ccc3nc(NC(=O)c4ccnc(F)c4)cn3n2)n1CC(F)F` [Compound 294, N-(6-(4-(4-chlorophenyl)-1-(2,2-difluoroethyl)-2-methyl-1H-imidazol-5-yl)imidazo[1,2-b]pyridazin-2-yl)-2-fluoroiso-nicotinamide], the negative logarithm of the IC50 (pIC50) on CK1δ is 9.68; against CK1ε, 8.39.
Take `Cc1nc(-c2ccc(Cl)cc2)c(-c2ccc3nc(NC(=O)c4ccnc(F)c4)cn3n2)n1CC(F)(F)F` [Compound 295, N-(6-(4-(4-chlorophenyl)-2-methyl-1-(2,2,2-trifluoroethyl)-1H-imidazol-5-yl)imidazo[1,2-b]pyridazin-2-yl)-2-fluoroisonicotin-amide]: the values for the pIC50 against CK1δ and against CK1ε were 9.90 and 8.23, respectively.
Consider `Cc1nc(-c2ccc(Cl)cc2)c(-c2ccc3nc(NC(=O)c4ccnc(F)c4)cn3n2)n1C` [Compound 296, N-(6-(4-(4-chlorophenyl)-1,2-dimethyl-1H-imidazol-5-yl)imidazo[1,2-b]pyridazin-2-yl)-2-fluoroisonicotinamide], for which the negative logarithm of the IC50 (pIC50) is 9.28 on CK1δ and 7.99 on CK1ε.
For `Cc1cc(-c2nc(C)n(CC(F)F)c2-c2ccc3nc(NC(=O)c4ccnc(F)c4)cn3n2)ccc1F` [Compound 297], in that order: 9.45 and 8.65.

A word on the pIC50: it is the negative decadic logarithm of the IC50, by convention in mol/L. A low value points to a large IC50.
